Remaining binding data for 3 compounds are collected here from paper PMC6437697 (Journal of Medicinal Chemistry, 2019).

Holding throughout (test): KINOMEscan
Assay type in all cases: binding
What all share (conditions): read-out: % control activity remaining

The target in one assay is T1, TAOK3 (Homo sapiens, UniProt Q9H2K8).
T1 construct: purchased Eurofins DiscoverX KINOMEscan
T1 sequence (Q9H2K8 1-898): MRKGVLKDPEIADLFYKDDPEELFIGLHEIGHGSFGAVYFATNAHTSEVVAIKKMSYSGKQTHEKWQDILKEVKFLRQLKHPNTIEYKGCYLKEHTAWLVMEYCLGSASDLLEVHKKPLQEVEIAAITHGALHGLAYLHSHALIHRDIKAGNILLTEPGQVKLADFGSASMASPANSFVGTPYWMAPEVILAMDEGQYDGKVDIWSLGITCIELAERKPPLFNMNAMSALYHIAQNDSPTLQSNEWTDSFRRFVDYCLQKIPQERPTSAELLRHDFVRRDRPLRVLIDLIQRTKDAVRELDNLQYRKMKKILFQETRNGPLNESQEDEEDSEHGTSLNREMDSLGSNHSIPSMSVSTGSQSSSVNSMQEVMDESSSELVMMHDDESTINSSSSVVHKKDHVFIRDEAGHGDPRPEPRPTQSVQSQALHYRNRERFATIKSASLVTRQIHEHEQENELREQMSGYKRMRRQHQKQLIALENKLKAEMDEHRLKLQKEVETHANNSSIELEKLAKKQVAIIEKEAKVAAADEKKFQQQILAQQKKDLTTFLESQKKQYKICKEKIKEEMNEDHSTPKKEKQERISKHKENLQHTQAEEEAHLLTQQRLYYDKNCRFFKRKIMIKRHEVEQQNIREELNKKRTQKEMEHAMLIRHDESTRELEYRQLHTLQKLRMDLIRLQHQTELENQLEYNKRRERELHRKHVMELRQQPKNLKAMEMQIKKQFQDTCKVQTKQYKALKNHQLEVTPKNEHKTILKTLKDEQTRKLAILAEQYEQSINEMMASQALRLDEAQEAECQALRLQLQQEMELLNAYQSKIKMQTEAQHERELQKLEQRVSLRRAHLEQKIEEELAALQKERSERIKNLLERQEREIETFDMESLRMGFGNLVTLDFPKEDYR

The next assay has as its target T2, PRKCH (Homo sapiens, UniProt P24723).
T2 construct: purchased Eurofins DiscoverX KINOMEscan

Another assay addresses T3, EGFR(S752-I759del) (Homo sapiens, UniProt P00533, DEL752-759).
T3 construct: purchased Eurofins DiscoverX KINOMEscan

The target in the next assay is T4, DCAMKL1 (Homo sapiens, UniProt O15075).
T4 construct: purchased Eurofins DiscoverX KINOMEscan
T4 sequence (O15075 1-740): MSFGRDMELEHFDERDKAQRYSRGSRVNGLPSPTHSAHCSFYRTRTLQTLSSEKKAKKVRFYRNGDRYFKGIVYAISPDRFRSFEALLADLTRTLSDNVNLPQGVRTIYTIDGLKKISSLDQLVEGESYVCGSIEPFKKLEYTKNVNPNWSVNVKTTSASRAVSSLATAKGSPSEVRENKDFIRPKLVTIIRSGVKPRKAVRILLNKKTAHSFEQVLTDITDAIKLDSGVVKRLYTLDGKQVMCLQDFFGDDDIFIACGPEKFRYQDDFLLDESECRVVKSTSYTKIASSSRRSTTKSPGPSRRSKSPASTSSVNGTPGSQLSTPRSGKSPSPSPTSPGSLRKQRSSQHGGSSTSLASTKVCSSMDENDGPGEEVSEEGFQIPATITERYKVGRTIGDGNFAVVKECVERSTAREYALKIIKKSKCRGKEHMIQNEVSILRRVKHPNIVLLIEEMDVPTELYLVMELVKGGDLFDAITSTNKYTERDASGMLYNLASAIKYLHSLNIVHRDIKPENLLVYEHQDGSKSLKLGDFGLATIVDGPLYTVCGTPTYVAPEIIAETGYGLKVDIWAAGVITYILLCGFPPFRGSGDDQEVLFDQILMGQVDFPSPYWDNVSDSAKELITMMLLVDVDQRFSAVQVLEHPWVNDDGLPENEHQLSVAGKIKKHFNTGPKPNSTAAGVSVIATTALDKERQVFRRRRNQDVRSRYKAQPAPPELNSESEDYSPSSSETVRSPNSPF

The next assay addresses T5, MAPKAPK2 (Homo sapiens, UniProt P49137).
T5 construct: purchased Eurofins DiscoverX KINOMEscan

A further assay deals with T6, PIK3CA(C420R) (Homo sapiens, UniProt P42336, C420R).
T6 construct: purchased Eurofins DiscoverX KINOMEscan

A further assay deals with T7, MEK2 (Homo sapiens, UniProt P36507).
T7 construct: purchased Eurofins DiscoverX KINOMEscan

Another assay has as its target T8, LKB1 (Homo sapiens, UniProt Q15831).
T8 construct: purchased Eurofins DiscoverX KINOMEscan
T8 sequence (Q15831 1-433): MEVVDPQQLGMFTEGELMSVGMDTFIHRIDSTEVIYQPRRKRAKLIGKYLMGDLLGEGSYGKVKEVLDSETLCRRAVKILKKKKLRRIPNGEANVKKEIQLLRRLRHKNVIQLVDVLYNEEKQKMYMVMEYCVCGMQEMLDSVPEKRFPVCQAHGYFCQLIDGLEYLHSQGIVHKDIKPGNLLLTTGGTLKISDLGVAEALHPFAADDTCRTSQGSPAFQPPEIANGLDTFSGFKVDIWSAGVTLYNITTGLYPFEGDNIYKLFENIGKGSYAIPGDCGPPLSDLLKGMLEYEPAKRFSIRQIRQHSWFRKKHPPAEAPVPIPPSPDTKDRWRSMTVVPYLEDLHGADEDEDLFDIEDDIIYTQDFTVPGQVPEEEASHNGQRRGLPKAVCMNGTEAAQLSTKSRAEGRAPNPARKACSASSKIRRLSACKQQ

The target of another assay is T9, MYLK4 (Homo sapiens, UniProt Q86YV6).
T9 construct: purchased Eurofins DiscoverX KINOMEscan
T9 sequence (Q86YV6 1-388): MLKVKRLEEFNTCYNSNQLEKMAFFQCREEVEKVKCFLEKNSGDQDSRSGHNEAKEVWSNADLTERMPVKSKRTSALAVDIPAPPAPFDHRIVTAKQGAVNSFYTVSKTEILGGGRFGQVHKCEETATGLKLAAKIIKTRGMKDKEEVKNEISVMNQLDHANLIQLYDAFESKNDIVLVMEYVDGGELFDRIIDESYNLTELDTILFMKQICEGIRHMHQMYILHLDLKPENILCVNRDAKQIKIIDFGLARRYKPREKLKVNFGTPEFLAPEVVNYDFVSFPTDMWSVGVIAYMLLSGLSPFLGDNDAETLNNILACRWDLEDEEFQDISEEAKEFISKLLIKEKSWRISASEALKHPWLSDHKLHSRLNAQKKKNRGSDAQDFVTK

Assay [1] addresses T10, RSK3(Kin.Dom.2-C-terminal) (Homo sapiens, UniProt Q15349).
T10 construct: RSK3(Kin.Dom.2-C-terminal); purchased Eurofins DiscoverX KINOMEscan

T10 sequence (Q15349 415-672 limits assumed): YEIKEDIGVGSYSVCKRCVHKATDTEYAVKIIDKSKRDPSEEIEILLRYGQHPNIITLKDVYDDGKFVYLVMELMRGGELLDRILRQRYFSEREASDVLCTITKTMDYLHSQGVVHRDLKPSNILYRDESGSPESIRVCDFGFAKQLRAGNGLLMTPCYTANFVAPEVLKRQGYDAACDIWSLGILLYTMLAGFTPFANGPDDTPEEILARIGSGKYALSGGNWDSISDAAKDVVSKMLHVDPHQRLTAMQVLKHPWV
T5 sequence (P49137 whole entry): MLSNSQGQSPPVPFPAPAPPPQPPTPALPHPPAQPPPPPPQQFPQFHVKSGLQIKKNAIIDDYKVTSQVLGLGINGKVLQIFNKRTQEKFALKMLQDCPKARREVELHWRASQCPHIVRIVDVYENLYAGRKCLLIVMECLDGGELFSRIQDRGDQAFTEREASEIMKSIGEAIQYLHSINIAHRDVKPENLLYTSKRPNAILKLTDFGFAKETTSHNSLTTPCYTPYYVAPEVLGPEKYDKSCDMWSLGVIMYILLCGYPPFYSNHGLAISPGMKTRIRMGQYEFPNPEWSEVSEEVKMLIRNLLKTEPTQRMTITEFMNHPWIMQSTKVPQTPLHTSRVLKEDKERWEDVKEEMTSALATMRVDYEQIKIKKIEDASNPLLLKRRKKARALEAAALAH
T7 sequence (P36507 whole entry): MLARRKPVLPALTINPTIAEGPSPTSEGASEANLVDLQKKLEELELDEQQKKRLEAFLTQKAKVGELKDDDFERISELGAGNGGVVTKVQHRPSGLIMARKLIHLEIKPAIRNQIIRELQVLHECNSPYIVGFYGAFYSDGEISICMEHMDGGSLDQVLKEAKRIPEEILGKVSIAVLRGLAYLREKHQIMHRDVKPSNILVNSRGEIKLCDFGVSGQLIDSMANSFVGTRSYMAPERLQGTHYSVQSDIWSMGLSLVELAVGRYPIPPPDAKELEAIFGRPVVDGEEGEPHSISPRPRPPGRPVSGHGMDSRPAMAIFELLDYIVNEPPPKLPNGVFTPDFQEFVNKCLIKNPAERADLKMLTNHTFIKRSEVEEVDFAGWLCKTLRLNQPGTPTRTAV
T3 sequence (P00533 with tags, fused parts or gaps DEL752-759 limits assumed): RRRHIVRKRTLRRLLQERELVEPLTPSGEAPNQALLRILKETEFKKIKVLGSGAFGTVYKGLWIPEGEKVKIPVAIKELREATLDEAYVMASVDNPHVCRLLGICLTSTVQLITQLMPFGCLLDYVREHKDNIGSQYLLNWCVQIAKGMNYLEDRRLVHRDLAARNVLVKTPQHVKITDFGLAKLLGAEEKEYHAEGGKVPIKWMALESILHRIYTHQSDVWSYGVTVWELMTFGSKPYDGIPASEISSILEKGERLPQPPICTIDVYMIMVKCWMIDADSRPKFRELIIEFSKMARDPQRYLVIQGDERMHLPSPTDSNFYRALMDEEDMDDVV
T6 sequence (P42336 whole entry C420R): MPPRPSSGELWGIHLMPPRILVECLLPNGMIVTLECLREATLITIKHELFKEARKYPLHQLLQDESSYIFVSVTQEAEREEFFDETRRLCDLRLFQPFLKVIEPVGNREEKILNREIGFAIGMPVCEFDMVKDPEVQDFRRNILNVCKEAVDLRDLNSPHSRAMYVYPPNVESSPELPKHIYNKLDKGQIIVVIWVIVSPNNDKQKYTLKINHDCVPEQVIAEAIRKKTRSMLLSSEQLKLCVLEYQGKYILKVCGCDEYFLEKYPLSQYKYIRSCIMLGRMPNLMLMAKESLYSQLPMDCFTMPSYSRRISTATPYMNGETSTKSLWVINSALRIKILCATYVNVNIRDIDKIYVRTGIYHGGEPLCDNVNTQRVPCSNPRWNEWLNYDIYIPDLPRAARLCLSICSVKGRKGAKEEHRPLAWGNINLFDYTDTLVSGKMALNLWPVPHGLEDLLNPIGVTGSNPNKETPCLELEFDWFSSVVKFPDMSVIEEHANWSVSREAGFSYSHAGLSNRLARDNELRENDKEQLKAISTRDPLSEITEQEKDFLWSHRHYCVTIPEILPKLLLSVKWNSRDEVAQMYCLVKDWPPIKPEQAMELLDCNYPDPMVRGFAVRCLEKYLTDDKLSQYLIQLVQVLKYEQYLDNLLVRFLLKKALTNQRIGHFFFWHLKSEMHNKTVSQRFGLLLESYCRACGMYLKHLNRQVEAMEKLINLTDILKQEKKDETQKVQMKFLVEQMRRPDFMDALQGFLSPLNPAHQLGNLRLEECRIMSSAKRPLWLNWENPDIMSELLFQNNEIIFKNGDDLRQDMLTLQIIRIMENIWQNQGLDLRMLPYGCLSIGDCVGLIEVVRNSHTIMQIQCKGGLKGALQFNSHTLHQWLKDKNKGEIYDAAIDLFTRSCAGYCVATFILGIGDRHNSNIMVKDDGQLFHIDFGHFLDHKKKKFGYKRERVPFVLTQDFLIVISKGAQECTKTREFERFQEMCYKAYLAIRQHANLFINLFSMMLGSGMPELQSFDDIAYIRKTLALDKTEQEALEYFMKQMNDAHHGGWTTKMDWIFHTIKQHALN
T2 sequence (P24723 whole entry): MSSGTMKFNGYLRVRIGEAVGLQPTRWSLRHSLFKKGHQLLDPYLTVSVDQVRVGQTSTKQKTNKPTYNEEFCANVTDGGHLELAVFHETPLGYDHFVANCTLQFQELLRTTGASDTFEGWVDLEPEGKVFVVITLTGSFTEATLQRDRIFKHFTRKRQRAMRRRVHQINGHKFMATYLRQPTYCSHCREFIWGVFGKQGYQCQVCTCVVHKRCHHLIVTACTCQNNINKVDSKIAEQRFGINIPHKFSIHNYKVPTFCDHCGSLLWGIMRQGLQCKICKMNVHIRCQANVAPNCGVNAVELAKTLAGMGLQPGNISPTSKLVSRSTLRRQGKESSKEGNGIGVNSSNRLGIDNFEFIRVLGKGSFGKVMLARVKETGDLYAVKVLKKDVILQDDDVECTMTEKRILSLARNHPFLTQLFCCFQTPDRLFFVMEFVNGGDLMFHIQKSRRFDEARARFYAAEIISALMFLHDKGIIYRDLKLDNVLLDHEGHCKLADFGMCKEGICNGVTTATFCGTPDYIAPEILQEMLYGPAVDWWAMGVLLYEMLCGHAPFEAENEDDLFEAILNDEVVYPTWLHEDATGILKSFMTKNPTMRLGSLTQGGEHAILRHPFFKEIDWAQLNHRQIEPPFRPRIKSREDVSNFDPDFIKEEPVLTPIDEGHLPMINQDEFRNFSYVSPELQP

For the compound `Clc1cc(NCC2CC2)c2ncc(-c3ccc4[nH]ncc4c3)n2n1` [compound 2, 6-Chloro-N-(cyclopropylmethyl)-3-(1H-indazol-5-yl)imidazo[1,2-b]pyridazin-8-amine], the remaining binding at 1 µM at TAOK3 turned out to be 92%; on PRKCH, 96%; at EGFR(S752-I759del) it was 94%; on DCAMKL1 it was 99%; on MAPKAPK2 it was 92%; on PIK3CA(C420R), 88%. For the same compound, the remaining binding at 1 µM was 92% on MEK2, 52% at LKB1, 67% on MYLK4 and 100% in assay [1].
Regarding `O=C(CN1CCOCC1)N[C@H]1CC[C@H](Nc2cc(Cl)nn3c(-c4ccc5[nH]ncc5c4)cnc23)CC1` [compound 26], the remaining binding at 1 µM on TAOK3 amounted to 91%; on PRKCH, 100%; at EGFR(S752-I759del) it was 95%; at DCAMKL1, 100%; at MAPKAPK2 it was 100%; on PIK3CA(C420R) it was 89%. Further, the remaining binding at 1 µM at MEK2 came out at 89%; at LKB1 it was 98%; on MYLK4, 24%; in assay [1], 94%.
Turning to `CN1CCC(CNc2cc(Cl)nn3c(-c4cc5nc(Nc6ccccc6)[nH]c5cc4F)cnc23)CC1` [compound 31, 6-Chloro-3-(6-fluoro-2-(phenylamino)-1H-benzo[d]imidazol-5-yl)-N-((1-methylpiperidin-4-yl)methyl)imidazo[1,2-b]pyridazin-8-amine], the remaining binding at 1 µM was found to be 77% on TAOK3; 100% at PRKCH; 97% on EGFR(S752-I759del); 81% at DCAMKL1; 100% at MAPKAPK2; 85% at PIK3CA(C420R). Also, the remaining binding at 1 µM at MEK2 is 80%; at LKB1, 77%; on MYLK4 it was 91%; in assay [1] it was 80%.
